# Measurements taken from patent publication US4107424A, “1-N-[(S)-α-hydroxy-ω-aminoacyl] derivatives of 3',4'-dideoxykanamycin B and 3'-deoxykanamycin B antibiotics” (Zaidan Hojin Biseibutsu Kagaku Kenkyu Kai, priority 1972, dated 1978).
# Experiments:
# Salmonella typhosa T-63 = test: Minimal inhibitory concentration, agar dilution streak method; assay type: cell-based; conditions: Salmonella enterica, nutrient agar, 37° C, 18 hours
# Protocol: (§1) [α]D^22 + 38°, (c 0.85, water).
# (§2) *Agar Agar dilution streak method (nutrient agar, 37° C, 18 hours)
# (§3) *Agar dilution streak method (nutrient agar, 37° C, 18 hours).
# Proteus rettgeri GN 466 = test: as above; assay type: cell-based; conditions: Providencia rettgeri, GN466; nutrient agar, 37° C, 18 hours
# Protocol: as §1, §2, §3
# [1] = system: Escherichia coli J 5 R 11-2; test: as above; assay type: cell-based; conditions: J5R112, 18 h, read-out: Minimal inhibitory concentration
# Protocol: as §1, §2, §3
# Proteus rettgeri GN 311 = test: as above; assay type: cell-based; conditions: Providencia rettgeri, GN311; nutrient agar, 37° C, 18 hours
# Protocol: as §1, §2, §3
# [2] = system: Bacillus subtilis NRRL B-558; test: as above; assay type: cell-based; conditions: NRRLB558, nutrient agar, 37° C, 18 hours
# Protocol: as §1, §2, §3
# [3] = system: Escherichia coli K-12 C 600 R 135; test: as above; assay type: cell-based; conditions: 18 h, read-out: Minimal inhibitory concentration
# Protocol: as §1, §2, §3
# [4] = system: Escherichia coli K-12 R-5; test: as above; assay type: cell-based; conditions: K12R5, nutrient agar, 37° C, 18 hours
# Protocol: as §1, §2, §3
# Sarcina lutea PCI 1001 = test: as above; assay type: cell-based; conditions: Micrococcus luteus, PCI1001; nutrient agar, 37° C, 18 hours; read-out: Minimal inhibitory concentration
# Protocol: as §1, §2, §3
# [5] = system: Pseudomonas aeruginosa 99; test: as above; assay type: cell-based; conditions: nutrient agar, 37° C, 18 hours, read-out: Minimal inhibitory concentration
# Protocol: as §1, §2, §3
# [6] = system: Klebsiella pneumoniae PCI 602; test: as above; assay type: cell-based; conditions: PCI602, nutrient agar, 37° C, 18 hours
# Protocol: as §1, §2, §3
# Escherichia coli NIHJ = test: as above; assay type: cell-based; conditions: nutrient agar, 37° C, 18 hours
# Protocol: as §1, §2, §3
# [7] = system: Escherichia coli K-12 ML 1410 R 81; test: as above; assay type: cell-based; conditions: 18 h, read-out: Minimal inhibitory concentration
# Protocol: as §2, §3
# Escherichia coli K-12 = test: as above; assay type: cell-based; conditions: K12, nutrient agar, 37° C, 18 hours, read-out: Minimal inhibitory concentration
# Protocol: as §2, §3
# [8] = system: Escherichia coli K-12 W 677; test: as above; assay type: cell-based; conditions: K12W677, nutrient agar, 37° C, 18 hours, read-out: Minimal inhibitory concentration
# Protocol: as §2, §3
# [9] = system: Escherichia coli K-12 ML 1410; test: as above; assay type: cell-based; conditions: K12ML1410, nutrient agar, 37° C, 18 hours, read-out: Minimal inhibitory concentration
# Protocol: as §2, §3
# [10] = system: Escherichia coli K-12 ML 1629; test: as above; assay type: cell-based; conditions: K12ML1629, nutrient agar, 37° C, 18 hours, read-out: Minimal inhibitory concentration
# Protocol: as §2, §3
# [11] = system: Klebsiella pneumoniae type 22 #3038; test: as above; assay type: cell-based; conditions: Klebsiella pneumoniae; nutrient agar, 37° C, 18 hours
# Protocol: as §2, §3
# [12] = system: Pseudomonas aeruginosa GN 315; test: as above; assay type: cell-based; conditions: GN315, nutrient agar, 37° C, 18 hours, read-out: Minimal inhibitory concentration
# Protocol: as §2, §3
# [13] = system: Escherichia coli K-12 LA 290 R 64; test: as above; assay type: cell-based; conditions: nutrient agar, 37° C, 18 hours, read-out: Minimal inhibitory concentration
# Protocol: as §2, §3
# [14] = system: Pseudomonas aeruginosa No.12; test: as above; assay type: cell-based; conditions: nutrient agar, 37° C, 18 hours, read-out: Minimal inhibitory concentration
# Protocol: as §2, §3
# [15] = system: Pseudomonas aeruginosa TI-13; test: as above; assay type: cell-based; conditions: TI13, nutrient agar, 37° C, 18 hours, read-out: Minimal inhibitory concentration
# Protocol: as §2, §3
# [16] = system: Pseudomonas aeruginosa A 3; test: as above; assay type: cell-based; conditions: A3, nutrient agar, 37° C, 18 hours, read-out: Minimal inhibitory concentration
# Protocol: as §2, §3
# [17] = system: Escherichia coli K-12 LA 290 R 56; test: as above; assay type: cell-based; conditions: 18 h, read-out: Minimal inhibitory concentration
# Protocol: as §2, §3
# [18] = system: Escherichia coli K-12 LA 290 R 55; test: as above; assay type: cell-based; conditions: 18 h, read-out: Minimal inhibitory concentration
# Protocol: as §2, §3
# [19] = system: Staphylococcus aureus FDA 209P; test: as above; assay type: cell-based; conditions: FDA209P, nutrient agar, 37° C, 18 hours, read-out: Minimal inhibitory concentration
# Protocol: as §2, §3
# [20] = system: Escherichia coli K-12 ML 1630; test: as above; assay type: cell-based; conditions: K12ML1630, nutrient agar, 37° C, 18 hours, read-out: Minimal inhibitory concentration
# Protocol: as §2, §3
# [21] = system: Escherichia coli K-12 JR 66/W 677; test: as above; assay type: cell-based; conditions: Escherichia coli, 18 h, read-out: Minimal inhibitory concentration
# Protocol: as §2, §3
# phosphotransferase = conditions: phosphorylation of hydroxyl group; cited from earlier work
# [22] = system: Mycobacterium smegmatis ATCC 607; test: Minimal inhibitory concentration, agar dilution streak method; assay type: cell-based; conditions: Mycolicibacterium smegmatis, ATCC607; nutrient agar, 37° C, 48 hours; read-out: Minimal inhibitory concentration
smiles,measurement,setting,value
"NC[C@@H]1CC[C@@H](N)[C@@H](O[C@H]2[C@H](O[C@@H]3O[C@H](CO)[C@@H](O)[C@H]3O)[C@@H](O)[C@H](N)C[C@@H]2N)O1 [3',4'-dideoxyribostamycin]",MIC,Salmonella typhosa T-63,1.56 µg/mL
same,MIC,Proteus rettgeri GN 466,6.25 µg/mL
same,MIC,[1],100 µg/mL
same,MIC,Proteus rettgeri GN 311,6.25 µg/mL
same,MIC,[2],1.56 µg/mL
same,MIC,[3],3.12 µg/mL
same,MIC,[4],100 µg/mL
same,MIC,Sarcina lutea PCI 1001,> 100 µg/mL
same,MIC,[5],50 µg/mL
same,MIC,[6],3.12 µg/mL
same,MIC,Escherichia coli NIHJ,6.25 µg/mL
same,MIC,[7],> 100 µg/mL
same,MIC,Escherichia coli K-12,3.12 µg/mL
same,MIC,[8],3.12 µg/mL
same,MIC,[9],6.25 µg/mL
same,MIC,[10],> 100 µg/mL
same,MIC,[11],6.25 µg/mL
same,MIC,[12],> 100 µg/mL
same,MIC,[13],3.12 µg/mL
same,MIC,[14],12.5 µg/mL
same,MIC,[15],25 µg/mL
same,MIC,[16],6.25 µg/mL
same,MIC,[17],1.56 µg/mL
same,MIC,[18],3.12 µg/mL
same,MIC,[19],3.12 µg/mL
same,MIC,[20],> 100 µg/mL
same,MIC,[21],6.25 µg/mL
same,inactivation by phosphotransferase,phosphotransferase,"inactivated by phosphorylating 5""-hydroxyl group"
same,MIC,[22],3.12 µg/mL
